Source: publication PMC7918612, “Novel Inhibitors of Nicotinamide-N-Methyltransferase for the Treatment of Metabolic Disorders” (Molecules, 2021)
Changes are numbered by the printed parent chain.

How the values were obtained:
human NNMT [1] = target: T1, human NNMT (Homo sapiens, UniProt P40261, E101A/E103A/K100A); experiment: Thermal shift (DSF) measurement of NNMT stabilisation; format: binding; conditions: together with cofactor (reaction product) SAH
T1 construct: His-tag; thrombin protease site; made in house
T1 sequence (P40261 1-264 K100A/E101A/E103A): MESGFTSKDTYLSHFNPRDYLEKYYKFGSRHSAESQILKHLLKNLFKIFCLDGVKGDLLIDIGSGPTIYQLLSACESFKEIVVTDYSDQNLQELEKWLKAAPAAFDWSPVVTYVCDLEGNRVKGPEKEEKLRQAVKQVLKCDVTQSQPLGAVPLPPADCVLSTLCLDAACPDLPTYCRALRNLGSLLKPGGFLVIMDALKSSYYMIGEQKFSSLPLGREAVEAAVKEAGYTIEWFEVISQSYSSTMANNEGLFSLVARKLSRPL

mouse NNMT = target: T2, mouse NNMT (Mus musculus, UniProt O55239); experiment: Fluorescence-based NNMT enzymatic assay (mouse enzyme); format: biochemical; conditions: read-out: mNNMT IC50
T2 sequence (O55239 1-264): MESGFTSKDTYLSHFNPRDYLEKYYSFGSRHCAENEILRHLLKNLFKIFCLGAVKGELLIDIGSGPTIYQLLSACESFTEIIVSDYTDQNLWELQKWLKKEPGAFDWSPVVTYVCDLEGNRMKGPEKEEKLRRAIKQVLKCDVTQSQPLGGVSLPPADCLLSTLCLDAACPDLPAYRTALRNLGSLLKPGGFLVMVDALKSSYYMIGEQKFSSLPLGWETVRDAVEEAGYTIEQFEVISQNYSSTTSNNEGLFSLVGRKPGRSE
Procedure: (§1) Experimental Procedures S2: Fluorescence-based NNMT enzymatic assay
(§2) NNMT activity was measured by fluorescence based assay. The product MNA formed in the reaction reacts with acetophenone in the presence of KOH and formic acid and forms a fluorescent product 2, 7- naphthyridine. The fluorescence intensity measured with excitation at 375nm and emission at 430nm. Inhibitors were screened using human, mouse and monkey NNMT enzymes. Different concentrations of inhibitors were pre-incubated along with 5ng/well of human NNMT enzyme and 3.42ng/well of mouse NNMT enzyme for 30 minutes at room temperature. Reaction was initiated by addition of SAM and nicotinamide mixture (7µM, 20µM, 8µM SAM and 6µM, 20µM, 9µM nicotinamide for human, mouse and monkey NNMT assays respectively) and incubated for 60 minutes at 37°C. The final assay reaction mixture contained a buffer of 100mM Tris Hcl pH 7.5, 0.04% BSA, 2mM Dithiothreitol and 1% DMSO. The reaction was terminated by addition of Ethanol: Acetophenone mix (75% ethanol: 25% Acetophenone) and 5M potassium Hydroxide prepared with 50% Ethanol. The reaction was incubated for 15 minutes followed by addition of 100µl of 60% formic acid and further incubation for 60 minutes at room temperature. A fluorescent product 2, 7- naphthyridine was measured in a Tecan reader with excitation at 375nm and emission at 430nm. The IC50 values were determined by fitting the inhibition curves (percent inhibition versus inhibitor concentration) using a four parametric sigmoidal dose response in graph pad prism. […]

human NNMT [2] = target: T3, human NNMT (Homo sapiens, UniProt P40261); experiment: Fluorescence-based NNMT enzymatic assay (human enzyme); format: biochemical; conditions: for IC50: read-out: hNNMT IC50
T3 sequence (P40261 1-264): T1 sequence (P40261 1-264 K100A/E101A/E103A) with A100K, A101E, A103E
Procedure: as §1, §2

[3] = Metabolic stability in liver microsomes (species not specified); format: in vitro ADME
Procedure: Experimental Procedures S3: Metabolic stability in human and mouse liver microsomes
These profiling studies were carried out as described in Mullangi R. et. al. Preclinical assessment of
ulixertinib, a novel ERK1/2 inhibitor, ADMET & DMPK, 2017, 212-223;

CYP3A4 = CYP3A4 (Homo sapiens, UniProt P08684); experiment: CYP3A4 inhibition; format: in vitro ADME
Sequence of CYP3A4 (P08684 whole entry, species assumed): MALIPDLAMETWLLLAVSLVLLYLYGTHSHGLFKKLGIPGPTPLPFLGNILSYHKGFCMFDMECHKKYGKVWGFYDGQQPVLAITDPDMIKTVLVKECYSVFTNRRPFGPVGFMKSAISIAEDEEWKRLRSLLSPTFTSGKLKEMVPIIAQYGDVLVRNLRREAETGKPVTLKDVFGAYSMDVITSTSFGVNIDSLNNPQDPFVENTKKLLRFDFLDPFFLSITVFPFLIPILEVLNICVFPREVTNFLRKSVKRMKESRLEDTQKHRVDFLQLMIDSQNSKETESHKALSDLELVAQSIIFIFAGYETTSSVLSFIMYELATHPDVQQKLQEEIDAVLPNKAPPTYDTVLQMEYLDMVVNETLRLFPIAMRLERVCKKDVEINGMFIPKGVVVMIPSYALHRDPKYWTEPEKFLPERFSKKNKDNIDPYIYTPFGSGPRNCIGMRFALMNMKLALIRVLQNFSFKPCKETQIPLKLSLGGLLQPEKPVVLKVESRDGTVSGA

| stabilization in DSF experiments, in words (human NNMT [1]) | Structure (SMILES) | IC50 (mouse NNMT) | mode of inhibition (human NNMT [2]; competition with substrates nicotinamide / SAM) | IC50 (human NNMT [2]) | metabolic stability, in words [3] | CYP3A4 inhibition liabilities (CYP3A4) | hNNMT potency, in words (human NNMT [2]) |
| --- | --- | --- | --- | --- | --- | --- | --- |
| strong additive stabilization | N=c1sc2cccc3c2n1CCC3 [Compound 2] | 2300 nM | competitive inhibitors either of nicotinamide alone | 1300 nM | – | – | – |
| – | CN1Cc2cccc3c2N(CCC3)C1=N [Compound 4] | 100 nM | – | 70 nM | in an acceptable range | no CYP3A4 inhibition liabilities were detected | two-digit nano-molar potency |
